Literature values in patent US20090016973A1, “Composition and Method for the Prevention of Oral Disease” (MICROPURE, INC., priority 2007, published 2009).

What was measured:
[1] = test system: protein synthesis; settings: Benarde et al., 1967
[2] = test system: dehydrogenase enzymes; settings: within the first 5 seconds of reaction; Roller et al., 1986
[3] = test system: Escherichia coli; settings: Berg et al., 1986; leading to cell death
[4] = test system: protein synthesis; settings: Roller et al., 1986

[O][Cl+][O-] [chlorine dioxide]
effect on protein synthesis [1]: abrupt inhibition | inhibition of total dehydrogenase enzymes [2]: inhibited completely | permeability control of the membrane [3]: impaired | inhibition of protein synthesis [4]: partially inhibited
